The supplement of paper PMC10331698
± gives the standard deviation of the averaged measurements.

Tests used:
Assay in all cases: level (log10 ratio to DMSO vehicle control); higher = higher biomarker level / cell amount than vehicle control
[1] = compound: C=CC(=O)OCC(F)(F)C(F)(F)C(F)(F)C(F)(F)COC(=O)C=C [1H,1H,6H,6H-Perfluorohexane-1,6-diol diacrylate]; settings: 6700 nM; in DMSO
Description: (§1)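 BioMAP Diversity Plus panel of 12 human primary cell co-culture systems (3C, 4H, LPS, SAg, BT, BF4T, BE3C, CASM3C, HDF3CGF, KF3CT, MyoF, Mphg). Compounds were added 1 h before stimulation and left for 24 h (MyoF 48 h; BT 72 h for soluble read-outs or 6 d for IgG). Biomarkers were read by ELISA, cytotoxicity by SRB, PBMC viability and proliferation by Alamar Blue. Each well value was divided by the mean of 8 DMSO control wells on the same plate and log10 transformed; duplicate blinded samples were tested at 4 concentrations.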

[2] = compound: C=CC(=O)OCCC(F)(F)C(F)(F)C(F)(F)C(F)(F)C(F)(F)C(F)(F)C(F)(F)C(F)(F)F [8:2 Fluorotelomer acrylate]; settings: in DMSO
Description: as §1

[3] = compound: Cc1ccc(S(=O)(=O)OCC(F)(F)C(F)(F)C(F)(F)C(F)(F)C(F)(F)C(F)F)cc1 [1H,1H,7H-Perfluoroheptyl 4-methylbenzenesulfonate]; settings: in DMSO
Description: as §1

[4] = compound: O=C(O)C(F)(F)C(F)(F)C(F)(F)C(F)(F)C(F)(F)C(F)(F)C(F)(F)F [Ammonium perfluorooctanoate]; settings: in DMSO
Description: as §1

[5] = compound: O=S(=O)(O)CCC(F)(F)C(F)(F)C(F)(F)C(F)(F)F [4:2 Fluorotelomer sulfonic acid]; settings: in DMSO
Description: as §1

[6] = compound: OCC(F)(F)C(F)(F)C(F)(F)C(F)(F)C(F)(F)C(F)(F)F [6:1 Fluorotelomer alcohol]; settings: in DMSO
Description: as §1

[7] = compound: OCCCCC(F)(F)C(F)(F)C(F)(F)C(F)(F)F [4:4 Fluorotelomer alcohol]; settings: in DMSO
Description: as §1

| Test System | level (log10) [1] | level (log10) ([2]; 6700 nM) | level (log10) ([2]; 20000 nM) | level (log10) ([2]; 60000 nM) | level (log10) ([3]; 6700 nM) | level (log10) ([3]; 20000 nM) | level (log10) ([3]; 60000 nM) | level (log10) ([4]; 6700 nM) | level (log10) ([4]; 20000 nM) | level (log10) ([4]; 60000 nM) | level (log10) ([5]; 6700 nM) | level (log10) ([5]; 20000 nM) | level (log10) ([5]; 60000 nM) | level (log10) ([6]; 6700 nM) | level (log10) ([6]; 20000 nM) | level (log10) ([6]; 60000 nM) | level (log10) ([7]; 6700 nM) | level (log10) ([7]; 20000 nM) | level (log10) ([7]; 60000 nM) |
| --- | --- | --- | --- | --- | --- | --- | --- | --- | --- | --- | --- | --- | --- | --- | --- | --- | --- | --- | --- |
| MyoF:Collagen IV | -0.0715 ± 0.015 | -0.022 ± 0.0042 | -0.002 ± 0.0057 | -0.0135 ± 0.036 | 0.0145 ± 0.022 | 0.0265 ± 0.046 | 0.0665 ± 0.077 | 0.06 ± 0.0099 | 0.0745 ± 0.0035 | 0.225 ± 0.05 | -0.0075 ± 0.00071 | -0.037 ± 0.0057 | -0.0225 ± 0.025 | -0.013 ± 0.0014 | -0.0335 ± 0.016 | 0.012 ± 0.02 | 0.002 ± 0.03 | -0.009 ± 0.044 | 0.0145 ± 0.063 |
| MyoF:Decorin | -0.083 ± 0.011 | -0.0175 ± 0.0078 | -0.0185 ± 0.0078 | -0.016 ± 0.017 | 0.0065 ± 0.033 | 0.0045 ± 0.025 | 0.073 ± 0.05 | 0.0055 ± 0.0035 | 0.0075 ± 0.00071 | -0.0355 ± 0.057 | -0.0075 ± 0.0078 | -0.012 ± 0.0014 | 0.004 ± 0.0028 | 0.004 ± 0.0071 | 0.0075 ± 0.0092 | 0.0005 ± 0.023 | 0.0115 ± 0.0035 | -0.0015 ± 0.028 | 0.033 ± 0.057 |
| MyoF:MMP-1 | 0.231 ± 0.023 | -0.0295 ± 0.0092 | -0.06 ± 0.071 | 0.0075 ± 0.098 | -0.0115 ± 0.0035 | 0.0185 ± 0.016 | 0.048 ± 0.014 | -0.029 ± 0.016 | -0.0145 ± 0.019 | 0.0415 ± 0.013 | -0.022 | -0.05 ± 0.0057 | -0.005 ± 0.047 | -0.018 ± 0.014 | -0.0295 ± 0.0078 | 0.15 ± 0.26 | 0.002 ± 0.0057 | 0.007 ± 0.023 | 0.032 ± 0.076 |
| MyoF:PAI-I | 0 ± 0.042 | -0.0055 ± 0.018 | -0.0105 ± 0.015 | -0.0355 ± 0.015 | -0.007 ± 0.0085 | -0.0085 ± 0.013 | -0.019 ± 0.013 | 0.0095 ± 0.015 | 0.0035 ± 0.013 | 0.027 ± 0.011 | -0.0015 ± 0.00071 | 0.0055 ± 0.0035 | 0.0055 ± 0.012 | 0.0015 ± 0.0078 | -0.006 ± 0.0042 | 0.0025 ± 0.019 | 0.0125 ± 0.011 | 0.007 ± 0.011 | 0.0095 ± 0.016 |
| MyoF:SRB | -0.0185 ± 0.013 | 0 ± 0.0014 | -0.001 ± 0.0028 | -0.0095 ± 0.0092 | -0.004 ± 0.018 | -0.021 ± 0.0085 | -0.024 ± 0.0014 | 0.0005 ± 0.011 | 0.01 ± 0.011 | -0.048 ± 0.014 | -0.004 ± 0.0071 | -0.0045 ± 0.0021 | -0.004 ± 0.0028 | 0.003 ± 0.02 | 0.0015 ± 0.016 | -0.089 ± 0.13 | -0.0025 ± 0.0035 | -0.0065 ± 0.0021 | 0.006 ± 0.017 |
| MyoF:TIMP-1 | -0.0015 ± 0.016 | -0.0615 ± 0.011 | -0.039 ± 0.025 | -0.014 ± 0.0042 | -0.0255 ± 0.044 | -0.0575 ± 0.069 | -0.0375 ± 0.07 | 0.004 ± 0.0085 | 0.012 ± 0.02 | 0.01 ± 0.033 | -0.0465 ± 0.069 | -0.0285 ± 0.047 | -0.0095 ± 0.036 | 0.0125 ± 0.025 | 0.0145 ± 0.019 | 0.03 ± 0.013 | 0.021 ± 0.062 | 0.0235 ± 0.067 | 0.0315 ± 0.087 |
| MyoF:alpha-SM Actin | -0.157 ± 0.012 | 0.0185 ± 0.069 | 0.0145 ± 0.063 | 0.009 ± 0.059 | -0.052 ± 0.011 | -0.0625 ± 0.022 | -0.0765 ± 0.019 | -0.0145 ± 0.0078 | -0.016 ± 0.0071 | -0.0295 ± 0.04 | 0 ± 0.052 | 0.022 ± 0.0028 | 0.035 ± 0.0028 | 0 ± 0.0057 | -0.006 ± 0.0099 | 0.011 ± 0.054 | 0.025 ± 0.041 | 0.0195 ± 0.04 | 0.041 ± 0.055 |
